Test results from US10844092B2, “Peptide for promoting regeneration of dentin or dental pulp tissue” (HysensBio Co., Ltd., priority 2016, dated 2020).

Assays:
Dspp gene = experiment: mRNA level of Dspp gene in MDPC-23 cells by real-time PCR; assay type: cell-based, mouse; settings: 48 hours, ratio relative to Dspp mRNA level of control group, triplicate
Experimental: The MDPC-23 cells cultured in Example 2-1 were treated with the peptides of the respective groups which were synthesized in Example 1, and cultured for 48 hours. Then, mRNA levels of an odontoblast differentiation marker Dspp gene expressed in the MDPC-23 cells were measured, and a ratio of the measured Dspp mRNA level relative to a Dspp mRNA level measured in a control group was calculated, respectively (Tables 13 to 24). Further, mean values of the Dspp mRNA levels measured in the peptides of respective groups were compared between the groups (FIG. 1B). In this regard MDPC-23 cells which were treated with none of the peptides of the present invention were used as a control group.
The expression levels of the Dspp gene were measured by RT-PCR and real time PCR analysis: In detail, total RNA was extracted from the MDPC-23 cells with TRIzol reagent. 2 μg of the total RNA, 1 μl of reverse transcriptase, and 0.5 μg oligo (dT) were used to synthesize cDNA. The synthesized cDNA were used in real-time polymerase chain reaction. The real-time polymerase chain reaction was performed on an ABI PRISM 7500 sequence detection system (Applied Biosystems) using the following primers and a SYBR GREEN PCR Master Mix (Takara, Japan). The real-time polymerase chain reaction was performed under conditions of 94° C., 1 min; 95° C., 15 sec 60° C., 34 sec for 40 cycles. Results were analyzed by a comparative cycle threshold (CT) method. In this regard, Gapdh gene was used as an internal control. The experiments were performed in triplicate, and then mean values and standard deviations thereof were taken as measured values.

DSP = experiment: Immunostaining of transplanted tissues for DSP; assay type: in vivo, immunocompromised mice
Description: (§1) Briefly, the removed tissues were fixed in 4% paraformaldehyde, decalcified in 10% EDTA (pH 7.4), embedded in paraffin, and then immunostained with anti-DSP and anti-BSP antibodies at a dilution of 1:150 as primary antibodies, and reacted with biotin-labeled goat anti-rabbit IgG (Vector Labs) as secondary antibodies to determine DSP and BSP levels (FIG. 4). In this regard, the tissue transplanted with an implant including none of the peptides of the present invention was used as a control group.
(§2) In this regard, a tissue transplanted with an implant including none of the peptides of the present invention was used as a control group.

BSP = experiment: Immunostaining of transplanted tissues for BSP; assay type: in vivo, immunocompromised mice
Description: as §1, §2

[1] = tested on: physiologic dentin (tertiary dentin); experiment: Indirect pulp capping canine model, physiologic (tertiary) dentin formation; assay type: in vivo, dogs; settings: 1.5 μg, 3 weeks
Description: In detail, to establish dentin-damaged canine models by indirect pulp capping, a part of enamel in the cervical part was removed from the premolars of 12-month-old adult dogs by using a dental bur. The dentin was shallowly removed according to the exposure degree of the dentin to form a shallow cavity, thereby establishing a shallow cavity model. The dentin was deeply removed such that the dental pulp was seen through, but not exposed to the outside, thereby establishing a deep cavity model. The models were treated with the control group, the peptide of Group 11, or the peptide of Group 12. 3 weeks later, the adult dogs were euthanized, and teeth were extracted therefrom.
(§3) The extracted teeth were fixed in 4% paraformaldehyde for 2.4 hours, washed with PBS (pH 7.4) several times, and then decalcified with 10% formic acid. The decalcified teeth were embedded in paraffin to prepare tissue sections. The tissue sections were stained with hematoxylin/eosin (H&E), and dentin regeneration capabilities were evaluated by histological analysis.

[2] = tested on: physiologic dentin (tertiary dentin); experiment: Direct pulp capping canine model, physiologic (tertiary) dentin formation; assay type: in vivo, dogs; settings: exposed pulp, peptide 1.5 μg, sealed with MTA, covered with GI cement, 3 weeks, FIG. 12
Experimental: In detail, to establish dentin-damaged canine models by direct pulp capping, the enamel and dentin in the cervical part were removed from the premolars of 12-month-old adult dogs by using a dental bur so that the dental pulp was exposed to the outside. The models were treated with the control group, the peptide of Group 11, or the peptide of Group 12. 3 weeks later, the adult dogs were euthanized and teeth were extracted therefrom.
as §3, with “24” for “2.4”

[3] = tested on: root canal spaces of human teeth; experiment: Implant transplanted into root canal spaces of human teeth (H-E, SEM); assay type: in vivo; settings: 6 weeks
Experimental: Reportedly, the dentinal wall and the empty pulp cavity of a natural tooth provide the specific local environment for the regeneration of dentin/pulp-like tissues by dental pulp cells (Huang G T, et al. (2010) Tissue engineering. Part A 16(2):605-615). Therefore, formation of dentin/pulp-like tissues in root canal spaces was evaluated.
In detail, among the implants prepared in Example 3-1, a comparative implant or an implant including the peptide of Group 12 (SEQ ID NO: 96) at a concentration of 10 μg/ml was transplanted into the root canal spaces of human teeth for 6 weeks, and dentin dental pulp-like tissues formed in the respective implants were subjected to hematoxylin-eosin (H-E) staining according to the method of Example 3-1, and photographed by a scanning electron microscope according to the method of Example 3-7 (FIG. 9).

[4] = 6 weeks after transplantation, FIG. 4
[5] = 12 weeks after transplantation, FIG. 7
[6] = deep cavity model, together with GI cement, FIG. 11

For “67 (KYKQRRKNKY; Synthetic construct of novel peptide) [compound 67]”, the “mRNA level of Dspp gene, Mean” value (Dspp gene) was 1.777.

With “68 (KYKQRRRNKY; Synthetic construct of novel peptide) [compound 68]” the “mRNA level of Dspp gene, Mean” value (Dspp gene) was 1.432.

“69 (KYKQKKKNKY; Synthetic construct of novel peptide) [compound 69]” was tested, and the “mRNA level of Dspp gene, Mean” value (Dspp gene) was 2.011.

With “70 (KYKQKRKNKY; Synthetic construct of novel peptide) [compound 70]” the “mRNA level of Dspp gene, Mean” value (Dspp gene) was 1.927.

In the case of “71 (KYKQKKRNKY; Synthetic construct of novel peptide) [compound 71]”, the “mRNA level of Dspp gene, Mean” value (Dspp gene) is reported as 1.879.

“72 (KYKQKRRNKY; Synthetic construct of novel peptide) [compound 72]” was tested, and the “mRNA level of Dspp gene, Mean” value (Dspp gene) was 2.011.

“73 (KYKQRKKSKY; Synthetic construct of novel peptide) [compound 73]” was tested, and the “mRNA level of Dspp gene, Mean” value (Dspp gene) was 2.035.

“74 (KYKQRKRSKY; Synthetic construct of novel peptide) [compound 74]” was tested, and the “mRNA level of Dspp gene, Mean” value (Dspp gene) was 2.011.

For “75 (KYKQRRKSKY; Synthetic construct of novel peptide) [compound 75]”, the “mRNA level of Dspp gene, Mean” value (Dspp gene) was 1.997.

For “76 (KYKQRRRSKY; Synthetic construct of novel peptide) [compound 76]”, the “mRNA level of Dspp gene, Mean” value (Dspp gene) was 2.351.

“77 (KYKQKKKSKY; Synthetic construct of novel peptide) [compound 77]” was tested, and the “mRNA level of Dspp gene, Mean” value (Dspp gene) was 1.729.

With “78 (KYKQKRKSKY; Synthetic construct of novel peptide) [compound 78]” the “mRNA level of Dspp gene, Mean” value (Dspp gene) was 2.635.

For “79 (KYKQKKRSKY; Synthetic construct of novel peptide) [compound 79]”, the “mRNA level of Dspp gene, Mean” value (Dspp gene) was 2.231.

For “80 (KYKQKRRSKY; Synthetic construct of novel peptide) [compound 80]”, the “mRNA level of Dspp gene, Mean” value (Dspp gene) was 1.837.

For “81 (KYKQRKKNYK; Synthetic construct of novel peptide) [compound 81]”, the “mRNA level of Dspp gene, Mean” value (Dspp gene) was 3.092.

For “82 (KYKQRKRNYK; Synthetic construct of novel peptide) [compound 82]”, the “mRNA level of Dspp gene, Mean” value (Dspp gene) was 3.361.

With “83 (KYKQRRKNYK; Synthetic construct of novel peptide) [compound 83]” the “mRNA level of Dspp gene, Mean” value (Dspp gene) was 3.572.

“84 (KYKQRRRNYK; Synthetic construct of novel peptide) [compound 84]” was tested, and the “mRNA level of Dspp gene, Mean” value (Dspp gene) was 3.702.

In the case of “85 (KYKQKKKNYK; Synthetic construct of novel peptide) [compound 85]”, the “mRNA level of Dspp gene, Mean” value (Dspp gene) is reported as 3.670.

With “86 (KYKQKRKNYK; Synthetic construct of novel peptide) [compound 86]” the “mRNA level of Dspp gene, Mean” value (Dspp gene) was 3.705.

In the case of “87 (KYKQKKRNYK; Synthetic construct of novel peptide) [compound 87]”, the “mRNA level of Dspp gene, Mean” value (Dspp gene) is reported as 3.888.

With “88 (KYKQKRRNYK; Synthetic construct of novel peptide) [compound 88]” the “mRNA level of Dspp gene, Mean” value (Dspp gene) was 4.021.

In the case of “89 (KYKQRKKSYK; Synthetic construct of novel peptide) [compound 89]”, the “mRNA level of Dspp gene, Mean” value (Dspp gene) is reported as 4.211.

With “90 (KYKQRKRSYK; Synthetic construct of novel peptide) [compound 90]” the “mRNA level of Dspp gene, Mean” value (Dspp gene) was 4.811.

For “91 (KYKQRRKSYK; Synthetic construct of novel peptide) [compound 91]”, the “mRNA level of Dspp gene, Mean” value (Dspp gene) was 4.362.

In the case of “92 (KYKQRRRSYK; Synthetic construct of novel peptide) [compound 92]”, the “mRNA level of Dspp gene, Mean” value (Dspp gene) is reported as 4.211.

In the case of “93 (KYKQKKKSYK; Synthetic construct of novel peptide) [compound 93]”, the “mRNA level of Dspp gene, Mean” value (Dspp gene) is reported as 4.525.

In the case of “94 (KYKQKRKSYK; Synthetic construct of novel peptide) [compound 94]”, the “mRNA level of Dspp gene, Mean” value (Dspp gene) is reported as 3.836.

With “95 (KYKQKKRSYK; Synthetic construct of novel peptide) [compound 95]” the “mRNA level of Dspp gene, Mean” value (Dspp gene) was 4.620.

With “96 (KYKQKRRSYK; Synthetic construct of novel peptide) [compound 96]” the “mRNA level of Dspp gene, Mean” value (Dspp gene) was 5.211.

For “KYKQKKRNYK (Synthetic construct of novel peptide) [SEQ ID NO: 87]”, the DSP expression level (DSP; [4]) was “relatively high DSP expression level”, the DSP expression level (DSP; [5]) was “relatively very high DSP expression levels” and the BSP expression level (BSP; [4]) was “low BSP expression level”. For the same substance, the BSP expression level (BSP; [5]) was “low BSP expression level”, the “dentin regeneration (histological analysis, H&E)” value [1, 6] was “regeneration of physiologic tertiary dentin (TD) which was continuous with the odontoblast processes of the original dentin structure was observed” and the “dentin regeneration (histological analysis, H&E)” value ([1]; shallow cavity model, FIG. 10) was “regeneration of physiologic tertiary dentin (TD) which was continuous with the odontoblast processes of the original dentin structure was observed”. The “dentin regeneration (histological analysis, H&E)” value [2] was “new physiologic dentin (TD) which was continuous with the odontoblast processes of the original dentin was formed”.

“KYKQKRRSYK (Synthetic construct of novel peptide) [SEQ ID NO: 96]” was tested, and the DSP expression level (DSP; [4]) was “relatively high DSP expression level”, the DSP expression level (DSP; [5]) was “relatively very high DSP expression levels” and the BSP expression level (BSP; [4]) was “low BSP expression level”. The BSP expression level (BSP; [5]) was “low BSP expression level”, the “pulp-like tissue formation inside root canals (H-E)” value ([3]; 10 μg/ml, FIG. 9) was “vascularized pulp-like tissues were formed” and the “newly formed dentin in root canal (H-E)” value ([3]; FIG. 9 C, D and D′) was “newly formed dentin was observed in the existing dentinal wall”. The “odontoblast-like cells on existing dentinal wall (H-E)” value ([3]; FIG. 9 C, D and D′) was “odontoblast-like cells exhibited a palisade arrangement on the existing dentinal wall”, the “odontoblast-like cells on existing dentinal wall (scanning microscopic images)” value ([3]; FIG. 9 G and H) was “odontoblast-like cells exhibited a palisade arrangement on the existing dentinal wall” and the “dentin regeneration (histological analysis, H&E)” value [1, 6] was “regeneration of physiologic tertiary dentin (TD) which was continuous with the odontoblast processes of the original dentin structure was observed”. The “dentin regeneration (histological analysis, H&E)” value ([1]; shallow cavity model, FIG. 10) was “regeneration of physiologic tertiary dentin (TD) which was continuous with the odontoblast processes of the original dentin structure was observed” and the “dentin regeneration (histological analysis, H&E)” value [2] was “new physiologic dentin (TD) which was continuous with the odontoblast processes of the original dentin was formed”.
